Reference: patent US20050119194A1, “Methods of using and compositions comprising thalidomide for treatment, modification and management of fibromyalgia” (priority 2003, published 2005)

System: fibromyalgia patients
Assay: Clinical studies in fibromyalgia patients
Type: in vivo, human
Protocol: Pressure of approximate 4 kg/cm^2 is applied manually at multiple anatomic points of patients with fibromyalgia to evaluate pain and tenderness. A useful device for quantitating pain sensitivity is a pressure algometer or dolorimeter. […] Clinical studies are performed in fibromyalgia patients that have not responded to conventional physical therapy and have been present for at least one year. In one embodiment, thalidomide is administered in an amount of 100 to 400 mg per day to patients with fibromyalgia for from three months to one year. A baseline evaluation is performed for the effect of the drug treatment on pain intensity, impact of pain on activities of daily living, and consumption of other pain medications.

Compound: O=C1CCC(N2C(=O)c3ccccc3C2=O)C(=O)N1 (racemic) [thalidomide, 2-(2,6-dioxo-3-piperidinyl)-1H-isoindole-1,3(2H)-dione]
- Tolerability of treatment (300 mg continuous oral daily dose): well-tolerated
- Analgesic effect in fibromyalgia (100 to 400 mg per day for three months to one year): analgesic benefit
